From patent publication US8030498B2, “Benzoylpyrazole compounds and herbicides containing them” (Ishihara Sangyo Kaisha, Ltd., priority 2005, dated 2011) come the findings set out here.

Test [1] deals with barnyardgrass (Echinochloa crus-galli L.). Kind of test: Test Example 1: foliar treatment, growth inhibition rate, barnyardgrass. Type of test: in vivo. The conditions noted are these: 31 g/ha active ingredient, visually observed 17th to 23rd day after application. In outline: (§1)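 Seeds were sown in upland field soil in pots. At the target leaf stage (corn 2.0–3.5; greenfoxtail 1.0–3.0; rice 1.0–2.5; wheat 1.7–3.4), the formulated compound, diluted at a water volume of 500 L/ha with 0.1 vol % spreader, was applied by small sprayer. Plants were rated by eye on days 17–23.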

For test [2], the system named is crabgrass (Digitaria sanguinalis L.). Kind of test: Test Example 1: foliar treatment, growth inhibition rate, crabgrass. Format: in vivo. The following applies: 31 g/ha active ingredient, visually observed 17th to 23rd day after application. In outline: (§2)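 Visual scoring of growth inhibition, 0% (untreated) to 100% (complete kill), on days 17–23 following post-emergence spray of formulated compound in water (500 L/ha, 0.1 vol % spreader); plants treated at set leaf stages, e.g. corn 2.0–3.5, wheat 1.7–3.4.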

For test [3], the system named is greenfoxtail (Setaria viridis L.). Kind of test: Test Example 1: foliar treatment, growth inhibition rate, greenfoxtail. Type of test: in vivo. The following applies: 31 g/ha active ingredient, visually observed 17th to 23rd day after application. In outline: (§3)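 Plants grown in upland soil in pots were sprayed on the foliage at set leaf stages (corn 2.0–3.5, greenfoxtail 1.0–3.0, rice 1.0–2.5, wheat 1.7–3.4 leaves) with wettable powder or emulsifiable concentrate formulations diluted in water at 500 L/ha plus 0.1 vol % spreader. Growth inhibition was scored visually 17–23 days later.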

Test [4] concerns redroot pigweed (Amaranthus retroflexus L.). Nature of the test: Test Example 1: foliar treatment, growth inhibition rate, redroot pigweed. The following applies: 31 g/ha active ingredient, visually observed 17th to 23rd day after application. Format: in vivo. In outline:
as §2

Test [5] relates to prickly sida (Sida spinosa L.). Kind of test: Test Example 1: foliar treatment, growth inhibition rate, prickly sida. Type of test: in vivo. The following applies: 31 g/ha active ingredient, visually observed 17th to 23rd day after application. In short, it runs like this:
as §2

Test [6] concerns velvetleaf (Abutilon theophrasti MEDIC.). Kind of test: Test Example 1: foliar treatment, growth inhibition rate, velvetleaf. Format: in vivo. The following applies: 31 g/ha active ingredient, visually observed 17th to 23rd day after application. In outline:
as §1

A further test deals with rice (Oryza sativa L.). Kind of test: Test Example 1: foliar treatment, growth inhibition rate, rice. Type of test: in vivo. The following applies: 31 g/ha active ingredient, visually observed 17th to 23rd day after application. In outline:
as §3

For the next test, the system named is wheat (Triticum spp.). Nature of the test: Test Example 1: foliar treatment, growth inhibition rate, wheat. Type of test: in vivo. The following applies: 31 g/ha active ingredient, visually observed 17th to 23rd day after application. In outline: as §3
The next test has as its system corn (Zea mays L.). Nature of the test: Test Example 1: foliar treatment, growth inhibition rate, corn. Type of test: in vivo. The conditions noted are these: 31 g/ha active ingredient, visually observed 17th to 23rd day after application. In short, it runs like this:
as §3

The subject of test [7] is soybean (Glycine max Merr.). Kind of test: Test Example 1: foliar treatment, growth inhibition rate, soybean. Format: in vivo. The conditions noted are these: 31 g/ha active ingredient, visually observed 17th to 23rd day after application. In short, it runs like this:
as §2

A further test has as its system barnyardgrass. Kind of test: Test Example 2: soil application on the day after sowing, growth inhibition rate, barnyardgrass. Format: in vivo, Echinochloa crus-galli L. The conditions noted are these: 250 g/ha active ingredient, observed on 19th to 24th day. In outline:
(§4)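 Seeds were sown in upland field soil in pots, and on the following day compounds formulated as wettable powders or emulsifiable concentrates were diluted in water (500 liter per hectare) and sprayed onto the soil at prescribed active-ingredient doses. Growth was scored visually 19–24 days later, 0 = untreated to 100% = complete kill.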

The test system of another test is crabgrass. Nature of the test: Test Example 2: soil application on the day after sowing, growth inhibition rate, crabgrass. Format: in vivo, Digitaria sanguinalis L. The conditions noted are these: 250 g/ha active ingredient, observed on 19th to 24th day. In short, it runs like this: as §4
The test system of another test is greenfoxtail. Nature of the test: Test Example 2: soil application on the day after sowing, growth inhibition rate, greenfoxtail. Format: in vivo, Setaria viridis L. The following applies: 250 g/ha active ingredient, observed on 19th to 24th day. In short, it runs like this:
as §4

Another test concerns redroot pigweed. Nature of the test: Test Example 2: soil application on the day after sowing, growth inhibition rate, redroot pigweed. Format: in vivo, Amaranthus retroflexus L. The conditions noted are these: 250 g/ha active ingredient, observed on 19th to 24th day. In outline: as §4
The test system of the next test is prickly sida. Kind of test: Test Example 2: soil application on the day after sowing, growth inhibition rate, prickly sida. Format: in vivo, Sida spinosa L. The conditions noted are these: 250 g/ha active ingredient, observed on 19th to 24th day. In short, it runs like this:
as §4

In the next test the test system is velvetleaf. Kind of test: Test Example 2: soil application on the day after sowing, growth inhibition rate, velvetleaf. Format: in vivo, Abutilon theophrasti MEDIC. The conditions noted are these: 250 g/ha active ingredient, observed on 19th to 24th day. In short, it runs like this:
as §4

A further test deals with rice. Nature of the test: Test Example 2: soil application on the day after sowing, growth inhibition rate, rice. Type of test: in vivo, Oryza sativa L. The conditions noted are these: 250 g/ha active ingredient, observed on 19th to 24th day. In short, it runs like this: as §4
The next test relates to wheat. Nature of the test: Test Example 2: soil application on the day after sowing, growth inhibition rate, wheat. Format: in vivo, Triticum spp. The following applies: 250 g/ha active ingredient, observed on 19th to 24th day. In outline: as §4
Another test has as its system corn. Kind of test: Test Example 2: soil application on the day after sowing, growth inhibition rate, corn. The following applies: 250 g/ha active ingredient, observed on 19th to 24th day. Format: in vivo, Zea mays L. In outline:
as §4

The next test has as its system soybean. Nature of the test: Test Example 2: soil application on the day after sowing, growth inhibition rate, soybean. Type of test: in vivo, Glycine max Merr. The conditions noted are these: 250 g/ha active ingredient, observed on 19th to 24th day. In outline: as §4

Molecules are shown by their SMILES.

For the molecule `CCCSC(=O)Oc1c(C(=O)c2ccc(S(C)(=O)=O)c(C(=O)OC)c2C)cnn1CC` [compound 85], the “Growth inhibition rate (%) Barnyardgrass” value amounted to 98% in test [1] and 100% in the test with barnyardgrass. Moreover, the “Growth inhibition rate (%) Crabgrass” value in [2] was determined as 98%; with crabgrass it was 100%. For the same molecule, the “Growth inhibition rate (%) Greenfoxtail” value (in test [3]; in the test on greenfoxtail) was 100% throughout. Also, the “Growth inhibition rate (%) redroot pigweed” value in test [4] is 95%; in the test on redroot pigweed, 98%. Besides, the “Growth inhibition rate (%) Prickly sida” value was determined as 98% in test [5] and 100% with prickly sida. Further, the entries for the “Growth inhibition rate (%) Velvetleaf” value (in [6]; in the test with velvetleaf) were 98% and 100%, respectively. Besides, the “Growth inhibition rate (%) Rice” value came out at 95% in the test on rice (Oryza sativa L.) and 100% with rice. The “Growth inhibition rate (%) Wheat” value in the test on wheat (Triticum spp.) is 60%; with wheat it was 0%. For the same molecule, the “Growth inhibition rate (%) Corn” value in the test with corn (Zea mays L.) and in the test on corn was 10% each time. The “Growth inhibition rate (%) Soybean” value came to 98% in [7] and 50% in the test on soybean.

As to `COC(=O)c1c(S(C)(=O)=O)ccc(C(=O)c2cnn(C)c2OC(=O)SC(C)C)c1C` [compound 86], the “Growth inhibition rate (%) Barnyardgrass” value (in test [1]; with barnyardgrass) was 95% in each case. Moreover, the “Growth inhibition rate (%) Crabgrass” value in test [2] is on record as 90%; in the test on crabgrass it was 100%. The “Growth inhibition rate (%) Greenfoxtail” value (in test [3]; in the test on greenfoxtail) was 95% each time. For the same molecule, the “Growth inhibition rate (%) redroot pigweed” value in test [4] stood at 95%; in the test with redroot pigweed it was 100%. Besides, the entries for the “Growth inhibition rate (%) Prickly sida” value (in test [5]; with prickly sida) were 80% and 90%, respectively. Further, the “Growth inhibition rate (%) Velvetleaf” value (in test [6]; with velvetleaf) was 95% each time. In addition, the results for the “Growth inhibition rate (%) Rice” value in the test with rice (Oryza sativa L.) and in the test with rice were 95% and 90%, respectively. In addition, the entries for the “Growth inhibition rate (%) Wheat” value in the test with wheat (Triticum spp.) and with wheat were 20% and 0%, respectively. Moreover, the “Growth inhibition rate (%) Corn” value with corn (Zea mays L.) is listed as 30%; with corn, 0%. For the same molecule, the “Growth inhibition rate (%) Soybean” value in test [7] amounted to 85%; with soybean it was 0%.

With `CCn1ncc(C(=O)c2ccc(S(C)(=O)=O)c(C(=O)OC)c2C)c1OC(=O)SC(C)C` [compound 87], the “Growth inhibition rate (%) Barnyardgrass” value in test [1] is 95%; in the test with barnyardgrass, 80%. For the same molecule, the “Growth inhibition rate (%) Crabgrass” value in [2] is reported as 100%; in the test on crabgrass, 90%. Also, the “Growth inhibition rate (%) Greenfoxtail” value in test [3] amounted to 100%; in the test on greenfoxtail, 70%. The “Growth inhibition rate (%) redroot pigweed” value in test [4] is reported as 100%; with redroot pigweed, 95%. In addition, the “Growth inhibition rate (%) Prickly sida” value is 75% in [5] and 70% in the test with prickly sida. The “Growth inhibition rate (%) Velvetleaf” value turned out to be 95% in test [6] and 50% with velvetleaf. Also, the “Growth inhibition rate (%) Rice” value in the test with rice (Oryza sativa L.) stood at 90%; with rice, 80%. Further, the entries for the “Growth inhibition rate (%) Wheat” value in the test on wheat (Triticum spp.) and with wheat were 10% and 0%, respectively. Further, the entries for the “Growth inhibition rate (%) Corn” value in the test with corn (Zea mays L.) and in the test on corn were 10% and 0%, respectively. Moreover, the entries for the “Growth inhibition rate (%) Soybean” value (in test [7]; in the test on soybean) were 95% and 0%, respectively.

On to `CCC(C)SC(=O)Oc1c(C(=O)c2ccc(S(C)(=O)=O)c(C(=O)OC)c2C)cnn1C` (stereo not drawn) [compound 88], for which the “Growth inhibition rate (%) Barnyardgrass” value in [1] is 98%; in the test with barnyardgrass, 100%. Also, the results for the “Growth inhibition rate (%) Crabgrass” value (in test [2]; with crabgrass) were 95% and 100%, respectively. The “Growth inhibition rate (%) Greenfoxtail” value came out at 100% in test [3] and 98% in the test with greenfoxtail. Moreover, the “Growth inhibition rate (%) redroot pigweed” value was 95% in [4] and 100% in the test with redroot pigweed. The results for the “Growth inhibition rate (%) Prickly sida” value (in test [5]; in the test with prickly sida) were 90% and 95%, respectively. Further, the “Growth inhibition rate (%) Velvetleaf” value in [6] stood at 95%; with velvetleaf, 100%. Moreover, the “Growth inhibition rate (%) Rice” value in the test with rice (Oryza sativa L.) and in the test on rice was 95% throughout. Besides, the “Growth inhibition rate (%) Wheat” value was found to be 10% in the test on wheat (Triticum spp.) and 0% with wheat. Moreover, the “Growth inhibition rate (%) Corn” value was determined as 20% with corn (Zea mays L.) and 0% in the test on corn. In addition, the figures for the “Growth inhibition rate (%) Soybean” value (in [7]; in the test with soybean) were 95% and 0%, respectively.

`CCC(C)SC(=O)Oc1c(C(=O)c2ccc(S(C)(=O)=O)c(C(=O)OC)c2C)cnn1CC` (stereo not drawn) [compound 89]: the entries for the “Growth inhibition rate (%) Barnyardgrass” value (in test [1]; in the test on barnyardgrass) were 100% and 70%, respectively. Moreover, the “Growth inhibition rate (%) Crabgrass” value in [2] was determined as 100%; in the test on crabgrass, 95%. Further, the entries for the “Growth inhibition rate (%) Greenfoxtail” value (in [3]; with greenfoxtail) were 100% and 80%, respectively. Also, the “Growth inhibition rate (%) redroot pigweed” value (in test [4]; in the test with redroot pigweed) was 90% in each case. The figures for the “Growth inhibition rate (%) Prickly sida” value (in test [5]; with prickly sida) were 60% and 50%, respectively. Moreover, the “Growth inhibition rate (%) Velvetleaf” value is 100% in test [6] and 70% in the test on velvetleaf. Further, the “Growth inhibition rate (%) Rice” value in the test on rice (Oryza sativa L.) is recorded as 100%; with rice, 80%. For the same molecule, the “Growth inhibition rate (%) Wheat” value is on record as 20% in the test with wheat (Triticum spp.) and 0% in the test on wheat. In addition, the “Growth inhibition rate (%) Corn” value came out at 20% in the test on corn (Zea mays L.) and 0% in the test with corn. For the same molecule, the “Growth inhibition rate (%) Soybean” value in test [7] was 95%; with soybean it was 0%.

As for `COC(=O)c1c(S(C)(=O)=O)ccc(C(=O)c2cnn(C)c2OC(=O)SC(C)(C)C)c1C` [compound 90], the “Growth inhibition rate (%) Barnyardgrass” value in test [1] is on record as 80%; with barnyardgrass, 100%. The “Growth inhibition rate (%) Crabgrass” value is 60% in test [2] and 100% in the test with crabgrass. Further, the entries for the “Growth inhibition rate (%) Greenfoxtail” value (in test [3]; in the test with greenfoxtail) were 95% and 100%, respectively. Besides, the “Growth inhibition rate (%) redroot pigweed” value in [4] is 80%; in the test with redroot pigweed, 100%. Besides, the “Growth inhibition rate (%) Prickly sida” value was found to be 75% in test [5] and 98% in the test on prickly sida. Also, the “Growth inhibition rate (%) Velvetleaf” value in [6] was determined as 95%; in the test on velvetleaf it was 100%. Also, the “Growth inhibition rate (%) Rice” value is reported as 40% in the test on rice (Oryza sativa L.) and 100% with rice. The “Growth inhibition rate (%) Wheat” value with wheat (Triticum spp.) and in the test with wheat was 0% each time. Further, the “Growth inhibition rate (%) Corn” value in the test with corn (Zea mays L.) is reported as 0%; in the test with corn, 10%. For the same molecule, the “Growth inhibition rate (%) Soybean” value amounted to 80% in test [7] and 30% in the test with soybean.
